Experimental data: patent publication US5674432A, “Photochromic naphthopyran compounds” (Transitions Optical, Inc., priority 1995, dated 1997)

Columns and labels:
[1] = lambda max (UV) in diethylene glycol dimethyl ether solution by UV spectrophotometer; assay type: physicochemical; parameters: unit not given here; conditions: approximately 0.5 milligram per milliliter, wavelength in the ultraviolet range closest to the visible spectrum
Protocol: The compounds of the Examples and the Comparative Examples were dissolved in diethylene glycol dimethyl ether. The concentrations of the resulting solutions were approximately 0.5 milligram per milliliter. Each solution was tested in a UV spectrophotometer to determine the lambda max (U/V). The lambda max (UV) reported in Table 1 for each of the Examples is the wavelength in the ultraviolet range closest to the visible spectrum.

[2] = cited from earlier work
[3] = photochromic response on an optical bench (sensitivity, saturation optical density, bleach rate) of imbibed test squares; assay type: physicochemical; conditions: for OD @ SATURATION: UV exposure continued for 20 minutes; for OD @ SATURATION / Δ OD/Min SENSITIVITY: 75° F. (23.9° C.); for Δ OD/Min SENSITIVITY: first five (5) seconds of UV exposure, expressed per minute; for BLEACH RATE T1/2: time for absorbance of activated form to reach one half the highest absorbance at room temperature (75° F., 23.9° C.) after removal of activating light
Protocol: Testing was done with selected photochromic naphthopyrans imbibed into test square polymerizates by a thermal transfer process. The test square polymerizates were prepared from a homopolymer of diethylene glycol bis(allyl carbonate) and measured 1/8 inch (0.3 centimeters)×2 inches (5.1 centimeters)×2 inches (5.1 centimeters). The test squares were imbibed by the following procedure. Each naphthopyran was dissolved .into toluene to form a 4 weight percent solution of the compound. A piece of No.4 Whatman filter paper was saturated with the naphthopyran toluene solution and allowed to air dry. The dried filter paper was placed on one side of the test square. A piece of untreated filter paper was placed on the other side of the polymeric test square and the resulting sandwich was placed between two flat aluminum metal plates. […] After cooling, each test square was washed with acetone.
The photochromic test squares of Part B were tested for photochromic response rates on an optical bench.
(§1) The optical bench comprises a 150 watt Xenon arc lamp, a tungsten lamp, power supplies for both lamps, condensing lenses as needed to maintain collimated light beams from both lamps, a remote controlled shutter, a copper sulfate bath acting as a heat sink for the arc lamp, a Schott WG-320 nm cut-off filter which removes short wavelength radiation, neutral density filter(s), a sample holder in which the sample to be tested is inserted, a photopic filter, light detector, and radiometer assembly, a strip chart recorder, and a means for maintaining the alignment of the aforestated components during testing.
Change in optical density (ΔOD) of a sample was determined by inserting a photochromic test sample in the bleached state into the sample holder, adjusting the transmittance scale to 100%, opening the shutter from the Xenon lamp to provide ultraviolet radiation to change the sample from the bleached state to an activated (darkened) state, measuring the transmittance through the sample. The transmittance was measured by directing a beam of light from the tungsten lamp at a small angle normal to the surface of the sample, through the sample, and to a photopic filter, light detector and radiometer assembly. The photopic filter passes wavelengths such that the detector mimics the response of the human eye and produces output signals that are processed by the radiometer. The change in optical density was calculated according to the formula ΔOD=log(100/% Ta) where % Ta is the percent transmittance in the activated state and the logarithm is to the base 10.
(§2) The ΔOD/Min, which represents the sensitivity of the photochromic compound's response to UV light, was measured over the first five (5) seconds of UV exposure, then expressed on a per minute basis. The saturation optical density (OD) was taken under identical conditions as the ΔOD/Min, except UV exposure was continued for 20 minutes. The lambda max (VIS) reported in Table 2 is the wavelength in the visible spectrum at which the maximum absorption of the activated (colored) form of the photochromic compound in a homopolymer of diethylene glycol bis(allyl carbonate) occurs.

[4] = lambda max (VIS) of the activated (colored) form in a homopolymer of diethylene glycol bis(allyl carbonate); assay type: physicochemical
Protocol: Testing was done with selected photochromic naphthopyrans imbibed into test square polymerizates by a thermal transfer process. The test square polymerizates were prepared from a homopolymer of diethylene glycol bis(allyl carbonate) and measured 1/8 inch (0.3 centimeters)×2 inches (5.1 centimeters)×2 inches (5.1 centimeters). The test squares were imbibed by the following procedure. Each naphthopyran was dissolved .into toluene to form a 4 weight percent solution of the compound. A piece of No.4 Whatman filter paper was saturated with the naphthopyran toluene solution and allowed to air dry. The dried filter paper was placed on one side of the test square. A piece of untreated filter paper was placed on the other side of the polymeric test square and the resulting sandwich was placed between two flat aluminum metal plates. The entire assembly was then placed in an oven kept at 135° to 155° C. for a time sufficient to thermally transfer the naphthopyran into the polymeric test square. After cooling, each test square was washed with acetone.
The photochromic test squares of Part B were tested for photochromic response rates on an optical bench. Prior to testing on the optical bench, the photochromic test squares were exposed to 365 nanometer ultraviolet light for about 15 minutes to activate the photochromic compounds and then placed into a 76° C. oven for about 15 minutes to bleach or inactivate the photochromic compounds. The test squares were then cooled to room temperature, exposed to fluorescent room lighting for at least 2 hours and then kept covered for at least 2 hours prior to testing on an optical bench maintained at 75° F. (23.9° C.).
as §1
as §2, with “occurs. The bleach rate (T 1/2) is the time interval in seconds for the absorbance of the activated form of the naphthopyran in the test squares to reach one half the highest absorbance at room temperature (75° F., 23.9° C.) after removal of the source of activating light.” for “occurs.”

[5] = vs 3,3-diphenyl-3H-naphtho[2,1-b]pyran and 5-, 7- or 9-methoxy compounds, U.S. Pat. No. 5,238,981

| SMILES | Lambda max (UV) [1] | OD @ SATURATION [3] | Δ OD/Min SENSITIVITY [3] | BLEACH RATE T1/2 [3] [min] | LAMBDA MAX (VIS) [4] [nm] | other results |
| --- | --- | --- | --- | --- | --- | --- |
| C1=CC(c2ccccc2)(c2ccccc2)Oc2ccc3ccccc3c21 [Comparative Example 1, 3,3-diphenyl-3H-naphtho[2,1-b]pyran, reference compound] | 359 | 0.36 | 0.87 Δ OD/Min | 0.75 | 430 | optical density at saturation ([2]; at room temperature and above): too low for use in optical applications; optical density change on exposure to ultraviolet light ([2]; at room temperature and above): changes too slowly; sensitivity on exposure to ultraviolet light ([2]; at room temperature and above): low |
| COc1ccc2c3c(ccc2c1)OC(c1ccccc1)(c1ccccc1)C=C3 [Comparative Example 2, 3,3-diphenyl-8-methoxy-3H-naphtho[2,1-b]pyran, reference compound] | 376 | 0.73 | 1.25 Δ OD/Min | 1.45 | 473 | lambda max (UV), in words ([2]; near visible threshold range about 390 to 410 nanometers, U.S. Pat. No. 5,238,981): shifted towards the near visible threshold range; optical density at saturation, comparison in words [2, 5]: enhanced sensitivity and optical density at saturation; sensitivity, comparison in words [2, 5]: enhanced sensitivity |
| Cc1cccc(C2(c3ccccc3)C=Cc3c(ccc4c5c(ccc34)OC(C)C5)O2)c1 (stereo not drawn) [Example 1, 7-(phenyl)-7-(3-methylphenyl)-7H-2-methyl-2,3-dihydrofuro[3',2',:5,6]naphtho[2,1-b]pyran] | 394 |  |  |  |  |  |
| CC1Cc2c(ccc3c4c(ccc23)OC(c2ccccc2)(c2ccccc2)C=C4)O1 (stereo not drawn) [Example 2, 7,7-diphenyl-7H-2-methyl-2,3-dihydrofuro[3',2',:5,6]naphtho[2,1-b]pyran] | 394 | 0.66 | 1.35 Δ OD/Min | 1.77 | 488 |  |
| CC1Cc2c(ccc3c4c(ccc23)OC(c2ccccc2)(c2cccc(C(F)(F)F)c2)C=C4)O1 (stereo not drawn) [Example 3, 7-(phenyl)-7-(3-trifluoromethylphenyl)-7H-2-methyl-2,3-dihydrofuro[3',2',:5,6]naphtho[2,1-b]pyran] | 396 | 0.74 | 1.38 Δ OD/Min | 2.18 | 494 |  |
| CC1Cc2c(ccc3c4c(ccc23)OC(c2ccccc2)(c2cccc(F)c2)C=C4)O1 (stereo not drawn) [Example 4, 7-(phenyl)-7-(3-fluorophenyl)-7H-2-methyl-2,3-dihydrofuro[3',2',:5,6]naphtho[2,1-b]pyran] | 394 | 0.76 | 1.44 Δ OD/Min | 1.82 | 489 |  |
| COc1cccc(C2(c3ccccc3)C=Cc3c(ccc4c5c(ccc34)OC(C)C5)O2)c1 (stereo not drawn) [Example 5, 7-(phenyl)-7-(3-methoxyphenyl)-7H-2-methyl-2,3-dihydrofuro[3',2',:5,6]naphtho[2,1-b]pyran] | 395 | 0.74 | 1.43 Δ OD/Min | 2.75 | 495 |  |
| COc1ccc(C2(c3ccccc3F)C=Cc3c(ccc4c5c(ccc34)OC(C)C5)O2)cc1 (stereo not drawn) [Example 6, 7-(2-fluorophenyl)-7-(4-methoxyphenyl)-7H-2-methyl-2,3-dihydrofuro[3',2',:5,6]naphtho[2,1-b]pyran] | 393 |  |  |  |  |  |
| Cc1coc2ccc3c4c(ccc3c12)OC(c1ccccc1)(c1ccccc1)C=C4 [Example 7, 7,7-diphenyl-7H-3-methylfuro[3',2',:5,6]naphtho[2,1-b]pyran] | 372 |  |  |  |  |  |
| C1=CC(c2ccccc2)(c2ccccc2)Oc2ccc3c4c(ccc3c21)OCCC4 [Example 8, 9,9-diphenyl-3H,9H-1,2-dihydronaphtho[2,1-b:6,5-b']dipyran] | 382 |  |  |  |  |  |
| COc1ccc(C2(c3ccc(OC)cc3OC)C=Cc3c(ccc4c3ccc3oc(=O)cc(C)c34)O2)cc1 (stereo not drawn) [Example 9, 9-(2,4-dimethoxyphenyl)-9-(4'-methoxyphenyl)-1-methyl-3H,9H-naphtho[2,1-b:6,5-b']dipyran-3-one] | 396 |  |  |  |  |  |
| COc1ccc(C2(c3ccc(OC)cc3OC)C=Cc3c(ccc4c3ccc3oc(C)cc(=O)c34)O2)cc1 (stereo not drawn) [Example 10, 9-(2,4-dimethoxyphenyl)-9-(4'-methoxyphenyl)-3-methyl-1H,9H-naphtho[2,1-b:6,5-b']dipyran-1-one] | 384 |  |  |  |  |  |
